This is an account of results in patent publication US20230075368A1, “IDENTIFICATION OF AN EGFR-BIN3 PATHWAY THAT ACTIVELY SUPPRESSES INVASION AND REDUCES TUMOR SIZE IN GLIOBLASTOMA” (The United States Govemment as represented by the …, priority 2020, published 2023).

In one experiment the test system is STAT1. Description: Western blot of pSTAT1 and STAT1. Particulars: tofacitinib 1 μM, 24 hours; GBM12 and GBM6. In kind it is cell-based, human. The protocol:
Mayo PDX cells were serum starved overnight. Following treatment for specific time, cells were harvested and lysed. The human glioblastoma tissues were ground in liquid nitrogen and then were lysed. […] TGFα antibody was from R&D system.
. . . […] A similar experiment was performed in GBM6 (FIG. 18F). […] The Western blot images are representative of three independent biological replicates. Actin served as loading control. Data are represented as mean±SEM from three independent experiments. *P<0.05, **P<0.01, ***P<0.001, unpaired two-tailed t-test.

The test system of another experiment is GBM12. The experiment can be described thus: Cignal 45-Pathway Reporter Array. In kind it is cell-based, human. Particulars: tofacitinib 1 μM, 24 hours.
The test system of experiment [1] is orthotopic glioblastoma tumors (Mayo PDXs). The experiment can be described thus: Orthotopic glioblastoma xenotransplant model treated with tofacitinib. It counts as in vivo, mice. The protocol:
4 to 6 weeks old female athymic nude mice were purchased from Charles River Laboratories. Mayo PDXs were injected into the right corpus striatum of the brains of 6-8 week-old nude mice using a stereotactic frame. […] Kaplan-Maier survival curves were calculated using GraphPad Prism 7.0 software. Alzet Osmotic pumps were installed for brain delivery of EGF or vehicle in tumor bearing mice. To monitor the mice with orthotropic xenografts, MRI was performed at the Mouse MRI Core, Advanced Imaging Research Center, at UT Southwestern.
Knockdown efficiency of HB-EGF in GBM39 control shRNA (GBM39shCtrl) and HB-EGF shRNA (GBM39shHB-EGF_1, GBM39shHB-EGF_2) clones was confirmed by ELISA (FIG. 21I). […] The Western blot images are representative of three independent biological replicates. Actin served as loading control. Scale bars: […]. Data are represented as mean±SEM from three independent experiments. ***P<0.001, […], n.s. not significant, unpaired two-tailed t-test.

The subject of a further experiment is betacellulin. Description: ELISA for BTC in supernatants. It counts as cell-based, human. Particulars: tofacitinib 1 μM, 72 hours; GBM12 and GBM6. On the procedure: Similar experiments were performed in GBM6 (FIG. 20D). […] Similar experiments were performed in GBM6 (FIG. 20F). […] The Western blot images are representative of three independent biological replicates. Actin served as loading control. Data are represented as mean±SEM from three independent experiments. * P<0.05, **P<0.01, *[…], unpaired two-tailed t-test.

In the next experiment the test system is BIN3 promoter. Description: ChIP assay of EGR1 occupancy. It counts as cell-based, human. As to conditions: EGF, 24 hours; GBM12 and GBM6. The protocol: Chromatin immunoprecipitation (ChIP) assays were performed using a ChIP assay kit (Upstate Biotechnology, Lake Placid, N.Y., USA). Cells were treated with or without EGF for the indicated time points or transfected with indicated vectors for 48 hours followed by cell fixation, lysis, chromatin shearing, antibody incubation and washing according to the manufacturer's protocol. ChIP grade anti-EGR1 (4153) or anti-Nanog antibody (5232) antibody from Cell Signaling Technology (Danvers, Mass.) was used to selectively precipitate the corresponding protein-DNA complex. RT-PCR was performed using ViiA 7 Real-Time PCR System (Applied Biosystems) to measure the relative amounts of ChIP DNA and results were quantified relative to inputs. The data are expressed as percentage of input. Following are primer sets: BIN3_Forward: 5′-[…]-3′ (SEQ ID NO:1); BIN3_Reverse: 5′-[…]-3′ (SEQ ID NO:2); EMP1_Forward: 5′-[…]-3′ (SEQ ID NO:3); EMP1_Reverse: 5′-[…]-3′ (SEQ ID NO:4).
Referring to FIG. 8A-D, EGF induces EGR1 activity and enrichment on the BIN3 promoter. […] Cells were transiently transfected with EGR1 firefly luciferase reporter vector and Renilla luciferase vector for 48 hours, EGF was added for additional 2 or 24 hours prior to measuring luciferase activity. […] Cells were treated with or without EGF for 24 hours. ChIP assay was performed as described elsewhere herein. IgG was used as negative control. […]

In another experiment the test system is DOCK7. The experiment can be described thus: GEF activity of DOCK7 (Cdc42 G15A agarose pull down). In kind it is cell-based, human. Particulars: EGF, 24 hours; GBM12 and GBM6. The protocol: To measure GEF activity of DOCK7, cell lysates were incubated with 40 μl Cdc42 G15A agarose beads (ab211185, Abcam) at 4° C. for 1 hour. The agarose beads were then washed boiled and the supernatants were used to immunoblot with DOCK7 antibody to determine levels of active DOCK7.

For another experiment, the system named is GBM12 and GBM6 cells. The experiment can be described thus: Scratch-wound assay. It counts as cell-based, human. As to conditions: EGF 50 ng/ml, 24 hours. On the procedure:
Cells were cultured in 6 well plate until they reached around 100% confluence. A scratch wound was produced on the monolayer using a sterile 200 ul pipette tip. The cell cultured with serum free DMEM containing EGF (50 ng/ml) or vehicle control. Images of wound were captured 0 and 24 hours after scratch generation.
Referring to FIG. 4A-D, an analysis of glioma cell migration by in vitro scratch assays is shown. […] Data are represented as mean±SEM from three independent experiments. ** P<0.01, unpaired two-tailed t-test.

The mark [2] stands for this setting: GBM12V tumors, tofacitinib 50 mg/kg, oral gavage.
[3] abbreviates: orthotopic GBM39 with HBEGF silenced, tofacitinib treated.

Consider `C[C@@H]1CCN(C(=O)CC#N)C[C@@H]1N(C)c1ncnc2[nH]ccc12` [tofacitinib], for which, in the experiment with STAT1, the “phosphorylation of STAT1” value was “blocks phosphorylation”. Besides, the transcription factor activity entry with GBM12 was “upregulates multiple transcription factors”. The survival benefit result in experiment [1] (GBM12TGFα tumors, tofacitinib 50 mg/kg, oral gavage) is on record as “no additional benefit”. Besides, in experiment [1] (setting [2]), the survival entry is given as “significant improvement in survival” and the “tumor invasion (H&E, SMI-31)” value is “decreased invasion”. In addition, in experiment [1] (GBM12 or GBM6 orthotopic model, 40 mg/kg/day for 3 weeks), the “infiltration of surrounding normal tissue” value was “do not infiltrate the surrounding normal tissue”. Also, the survival entry in experiment [1] (GBM12 or GBM6 orthotopic model, 40 mg/kg/day for 3 weeks, from one week after intracranial injection) is given as “prolong survival”. For the same compound, the “responsiveness of orthotopic tumors” value in experiment [1] (GBM39 with HBEGF silenced vs. controls) is recorded as “more responsive”. For the same compound, in experiment [1] (setting [3]), the survival entry was “improved” and the tumor invasiveness result was “less invasive”. The upregulation of betacellulin result with betacellulin is listed as “not found”.

With “EGF: Recombinant human EGF (AF-100) from Peprotech; EGFR ligand”, the “EGR1 occupancy of BIN3 promoter” value in the experiment on BIN3 promoter was “occupies the BIN3 promoter”. Besides, the DOCK7 activity result with DOCK7 was “decreased activity”. In the experiment on GBM12 and GBM6 cells, the “migration (scratch wound closure)” value was “suppressing migration”.
